Values joined by “and” are separate entries in the source; they are usually repeats but may differ in a detail not shown here. Identical values can stand only once. Like-named read-outs stand apart in the source and are kept apart here.
Columns and labels:
[1] = test system: SARS-CoV-2 WA1/2020 (lineage A); assay: microbe, parasite or virus in culture; format: cell-based; details: for Virus yield reduction: vehicle = 0
[2] = test system: SARS-CoV-2 CA/2020 (α, lineage B.1.1.7); assay: microbe, parasite or virus in culture; format: cell-based
[3] = test system: SARS-CoV-2 SA/2020 (β, lineage B.1.351); assay: microbe, parasite or virus in culture; format: cell-based; details: Severe acute respiratory syndrome coronavirus 2, Vero C1008; SA/2020, VeroE6, mean n=3
[4] = test system: SARS-CoV-2 BZ/2021 (γ, lineage P.1); assay: microbe, parasite or virus in culture; format: cell-based; details: Severe acute respiratory syndrome coronavirus 2, Vero C1008; BZ/2021, VeroE6, mean n=3
[5] = test system: SARS-CoV-2-Nluc (WA1/2020-nano luciferase); assay: microbe, parasite or virus in culture; format: cell-based; details: for A549-hACE2 SARS-CoV-2 Nluc (EC50 determination), normalized signal: replicate values of the experiments
[6] = test system: SARS-CoV-2 gamma isolate (BZ/2021, lineage P.1); assay: microbe, parasite or virus in culture; format: cell-based; details: Severe acute respiratory syndrome coronavirus 2
[7] = test system: well-differentiated primary human airway epithelium cultures; format: cell-based
[8] = test system: SARS-CoV-2 (WA1/2020 and VOC α, β, γ); assay: microbe, parasite or virus in culture; format: cell-based; details: Severe acute respiratory syndrome coronavirus 2, Vero C1008; read-out: Half-maximal effective concentrations (EC50), range
[9] = parameters: method as in Mackman et al 2021 (JMC 2021, 64(8), 5001-5017); details: rats, ref Mackman et al 2021 (JMC 2021, 64(8), 5001-5017); cited from earlier work
[10] = parameters: method as in Mackman et al 2021 (JMC 2021, 64(8), 5001-5017); details: cynomolgus macaques, ref Mackman et al 2021 (JMC 2021, 64(8), 5001-5017); cited from earlier work
[11] = cited from earlier work
in vitro [12] = details: human
in vitro [13] = details: human, % cell viability, 72 h
in vitro [14] = details: human; remark: listed apart in the source
[15] = Cytotoxicity assay (PrestoBlue), HEp-2; details: human, HEp-2 cells
[16] = Cytotoxicity assay (PrestoBlue), HCT-8; details: human, HCT-8 cells
[17] = Cytotoxicity assay (PrestoBlue), VeroE6; details: African green monkey, VeroE6 cells
VeroE6 cells = assay: Cytotoxicity assay (PrestoBlue), VeroE6; details: 72 h
[18] = Cytotoxicity assay (PrestoBlue), BHK-21; details: hamster, BHK-21 cells
[19] = Cytotoxicity assay (PrestoBlue), “F2” HAE; details: human
“F3” primary HAE cells = assay: Cytotoxicity assay (PrestoBlue), “F3” HAE; details: 72 h; for % cell viability: F3 HAE
[20] = Cytotoxicity assay (PrestoBlue), “M2” HAE; details: human, % cell viability, M2 HAE, 72 h
[21] = Cytotoxicity assay (PrestoBlue), “M6” HAE; details: human
“M6” primary HAE cells = assay: Cytotoxicity assay (PrestoBlue), “M6” HAE; details: M6 HAE, 72 h
[22] = Single-dose plasma pharmacokinetics in ferrets; details: ferret; for plasma concentration of GS-621763: GS-621763 PO 30 mg/kg, 30 mg/kg

What does the source list for `CC(C)C(=O)OCC1OC(C#N)(c2ccc3c(N)ncnn23)C(OC(=O)C(C)C)C1OC(=O)C(C)C` (centres unmarked) [GS-621763]?
EC50 ([1]; Severe acute respiratory syndrome coronavirus 2, Vero C1008, WA1/2020, VeroE6, mean n=3): 0.73 µM; Virus yield reduction ([1]; WA1/2020, VeroE6, 0.617284 µM): -0.1154; Virus yield reduction ([1]; WA1/2020, VeroE6, 1.85185 µM): -1.903; reduction in titer in vitro (to the limit of detection) [2]: ~ 1 log; EC50 ([2]; Severe acute respiratory syndrome coronavirus 2, Vero C1008, CA/2020, VeroE6, mean n=3): 0.21 µM; EC50 [3]: 0.11 µM; EC50 [4]: 0.22 µM; A549-hACE2 SARS-CoV-2 Nluc (EC50 determination), normalized signal ([5]; Conc 0.023 µM): 100.31 and 91.27 and 105.35 and 111.17 and 106.25 and 121.34 and 128.97 and 56.85; A549-hACE2 SARS-CoV-2 Nluc (EC50 determination), normalized signal ([5]; Conc 0.069 µM): 81.07 and 111.32 and 107.14 and 109.98 and 64.03 and 99.75 and 127.29 and 97.36; A549-hACE2 SARS-CoV-2 Nluc (EC50 determination), normalized signal ([5]; Conc 0.206 µM): 99.03 and 101.58 and 96.21 and 106.69 and 74.78 and 94.61 and 130.86 and 135.24; A549-hACE2 SARS-CoV-2 Nluc (EC50 determination), normalized signal ([5]; Conc 0.617 µM): 93.09 and 77.54 and 84.50 and 82.94 and 7.92 and 26.38 and 11.95 and 19.80; A549-hACE2 SARS-CoV-2 Nluc (EC50 determination), normalized signal ([5]; Conc 1.852 µM): 11.60 and 8.15 and 9.31 and 12.89 and 0.89 and 0.94 and 1.04 and 0.76; A549-hACE2 SARS-CoV-2 Nluc (EC50 determination), normalized signal ([5]; Conc 5.556 µM): 0.61 and 1.05 and 0.64 and 0.93 and 0.44 (2×) and 0.49 and 0.36; A549-hACE2 SARS-CoV-2 Nluc (EC50 determination), normalized signal ([5]; Conc 16.667 µM): 0.46 and 0.65 and 0.58 and 0.40 and 0.32 (2×) and 0.31 and 0.28; A549-hACE2 SARS-CoV-2 Nluc (EC50 determination), normalized signal ([5]; Conc 50.000 µM): 0.15 (3×) and 0.14 and 0.29 (2×) and 0.24 and 0.26; EC50 ([5]; Severe acute respiratory syndrome coronavirus 2, WA1/2020-nano luciferase, A549-ACE2, mean ± SD): 0.72 µM; EC50 [6]: 3.01 µM; basolateral drug concentration at which epithelium integrity (TEER) was fully preserved [7]: ≥ 3 µM; EC50 [8]: 0.11 to 0.73 µM; oral F [9]: 57%; oral F [10]: 28%; increase of oral F compared to GS-441524 ([11]; rats and cynomolgus macaques, ref Mackman et al 2021): greater than 5 fold; oral bioavailability (in words) ([11]; two relevant animal species including non-human primates): high oral bioavailability; CC50 at 48 h (in vitro [12]): > 47 µM; viability at 72 h, 1.235 µM (in vitro [13]; HCT-8, 1.235 µM): 115%; viability at 72 h, 3.704 µM (in vitro [13]; HCT-8, 3.704 µM): 114%; viability at 72 h, 33.333 µM (in vitro [13]; HCT-8, 33.333 µM): 106%; viability at 72 h, 0.046 µM (in vitro [14]; female, % cell viability): 84%; viability at 72 h, 3.704 µM (in vitro [14]; female, % cell viability): 120%; viability at 72 h, […] (in vitro [14]; female, % cell viability): 95%; viability at […] (in vitro [14]; female, % cell viability): 101%; viability at 1.235 µM (in vitro [14]; female, % cell viability, DF2 HAE, 1.235 µM, 72 h): 103%; viability at 3.704 µM (in vitro [14]; female, % cell viability, DF2 HAE, 3.704 µM, 72 h): 116%; viability at 33.333 µM (in vitro [14]; female, % cell viability, DF2 HAE, 33.333 µM, 72 h): 112%; CC50 at 72 h (in vitro [14]): 86 µM; viability at 72 h, 100 µM (in vitro [14]; % cell viability): 4%; viability at 72 h, 0.046 µM ([15]; % cell viability, HEp-2, 0.046 µM, 72 h): 53%; viability at 72 h, 1.235 µM ([15]; % cell viability, HEp-2, 1.235 µM, 72 h): 95%; viability at 72 h, 3.704 µM ([15]; % cell viability, HEp-2, 3.704 µM, 72 h): 104%; viability at 72 h, 33.333 µM ([15]; % cell viability, HEp-2, 33.333 µM, 72 h): 111%; CC50 at 72 h ([15]; CC50, HEp-2, 72 h): 79.4 µM; viability at 72 h, 0.046 µM ([16]; % cell viability, HCT-8, 0.046 µM, 72 h): 78%; viability at 72 h, 3.704 µM ([16]; % cell viability, HCT-8, 3.704 µM, 72 h): 104%; viability at 72 h, 33.333 µM ([16]; % cell viability, HCT-8, 33.333 µM, 72 h): 99%; viability at 72 h, 100 µM ([16]; % cell viability, HCT-8, 100 µM, 72 h): 2%; CC50 at 72 h ([16]; CC50, HCT-8, 72 h): 74.6 µM; CC50 at 72 h [17]: > 100 µM; viability at 72 h, 0.046 µM ([17]; % cell viability, VeroE6, 0.046 µM, 72 h): 62%; viability at 72 h, 1.235 µM ([17]; % cell viability, VeroE6, 1.235 µM, 72 h): 90%; viability at 72 h, 3.704 µM ([17]; % cell viability, VeroE6, 3.704 µM, 72 h): 95%; viability at 72 h, 33.333 µM ([17]; % cell viability, VeroE6, 33.333 µM, 72 h): 105%; % cell viability (VeroE6 cells; VeroE6, 0.046 µM, 0.046 µM): 61% and 56%; % cell viability (VeroE6 cells; VeroE6, 1.235 µM, 1.235 µM): 82%; % cell viability (VeroE6 cells; VeroE6, 3.704 µM, 3.704 µM): 97%; % cell viability (VeroE6 cells; VeroE6, 33.333 µM, 33.333 µM): 103%; % cell viability (VeroE6 cells; VeroE6, 100 µM, 100 µM): -4% and -6% and -7%; CC50 at 72 h [18]: > 100 µM; viability at 72 h, 0.046 µM ([18]; % cell viability, BHK-21, 0.046 µM, 72 h): 76%; viability at 72 h, 1.235 µM ([18]; % cell viability, BHK-21, 1.235 µM, 72 h): 90%; viability at 72 h, 3.704 µM ([18]; % cell viability, BHK-21, 3.704 µM, 72 h): 90%; viability at 72 h, 33.333 µM ([18]; % cell viability, BHK-21, 33.333 µM, 72 h): 91%; viability at 72 h, 100 µM ([18]; % cell viability, BHK-21, 100 µM, 72 h): 85%; viability at 72 h, 1.235 µM ([19]; female, % cell viability, F2 HAE, 1.235 µM): 100%; viability at 72 h, 3.704 µM ([19]; female, % cell viability, F2 HAE, 3.704 µM): 117%; viability at 72 h, 33.333 µM ([19]; female, % cell viability, F2 HAE, 33.333 µM): 82%; viability at 72 h, 0.046 µM ([19]; female, “F2” primary human airway epithelial (HAE) cells, % cell viability, F2 HAE, 0.046 µM): 86%; viability at 72 h, 100 µM ([19]; % cell viability, F2 HAE, 100 µM): 1%; CC50 at 72 h ([19]; CC50, “F2” HAE): 43.8 µM; % cell viability (“F3” primary HAE cells; 0.046 µM): 79%; % cell viability (“F3” primary HAE cells; 3.704 µM): 115%; % cell viability (“F3” primary HAE cells; 33.333 µM): 86%; CC50 (“F3” primary HAE cells; “F3” HAE): 43.8 µM; viability at 72 h, 100 µM ([20]; 100 µM): 0%; viability at 72 h, 1.235 µM ([20]; male, 1.235 µM): 107%; viability at 72 h, 3.704 µM ([20]; male, 3.704 µM): 117%; viability at 72 h, 33.333 µM ([20]; male, 33.333 µM): 89%; CC50 at 72 h [21]: 92.3 µM; viability at 72 h, 100 µM ([21]; % cell viability, M6 HAE, 100 µM, 72 h): 42%; viability at 72 h, 1.235 µM ([21]; male, % cell viability, M6 HAE, 1.235 µM, 72 h): 97%; viability at 72 h, 33.333 µM ([21]; male, % cell viability, M6 HAE, 33.333 µM, 72 h): 94%; % cell viability (“M6” primary HAE cells; 1.235 µM): 96%; % cell viability (“M6” primary HAE cells; 3.704 µM): 70% and 86%; % cell viability (“M6” primary HAE cells; 33.333 µM): 99%; % cell viability (“M6” primary HAE cells; 100 µM): 46% and 45%; oral bioavailability (in words) [22]: excellent oral bioavailability; plasma concentration of GS-621763 ([22]; 0.25 h): 9.27 and 11.5 and 13.7; plasma concentration of GS-621763 ([22]; 1 h): 5.98 and 3.18 and 4.36; plasma GS-621763 (intact prodrug) transiently observed ([22]; GS-621763 p.o. 30 mg/kg, first two hours): approximately 10 nM; GS-441524 in blood relative to intact prodrug ([22]; after oral administration of GS-621763): more than three orders of magnitude higher

From paper PMC8571282 (Nature Communications, 2021)
